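Tested at 5 concentrations; 48 h exposure; 96-well plates; endpoints linearly interpolated, else capped at highest concentration. TGI: concentration producing complete growth inhibition.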
Assays:
Experiment in all cases: NCI tumour cell line growth inhibition, 48 h
[1] = tested on: 786-0 renal
[2] = tested on: A498 renal
[3] = tested on: A549 NSCLC
[4] = tested on: ACHN renal
[5] = tested on: BT-549 breast
[6] = tested on: CAKI-1 renal
[7] = tested on: CCRF-CEM leukemia
[8] = tested on: COLO 205 colon
[9] = tested on: DU-145 prostate
[10] = tested on: EKVX NSCLC
[11] = tested on: HCC-2998 colon
[12] = tested on: HCT-116 colon
[13] = tested on: HCT-15 colon
[14] = tested on: HL-60(TB) leukemia
[15] = tested on: HOP-62 NSCLC
[16] = tested on: HOP-92 NSCLC
[17] = tested on: HT29 colon
[18] = tested on: IGROV1 ovarian
[19] = tested on: K-562 leukemia
[20] = tested on: KM12 colon
[21] = tested on: LOX IMVI melanoma
[22] = tested on: M14 melanoma
[23] = tested on: MALME-3M melanoma
[24] = tested on: MCF7 breast
[25] = tested on: MDA-MB-231 breast
[26] = tested on: MDA-MB-435
[27] = tested on: MDA-N
[28] = tested on: MOLT-4 leukemia
[29] = tested on: NCI-H226 lung
[30] = tested on: NCI-H23 lung
[31] = tested on: NCI-H460 lung
[32] = tested on: NCI-H522 lung
[33] = tested on: NCI/ADR-RES ovarian
[34] = tested on: OVCAR-3 ovarian
[35] = tested on: OVCAR-4 ovarian
[36] = tested on: OVCAR-5 ovarian
[37] = tested on: OVCAR-8 ovarian
[38] = tested on: PC-3 prostate
[39] = tested on: RPMI-8226 leukemia
[40] = tested on: RXF 393 renal
[41] = tested on: SF-295 CNS
[42] = tested on: SF-539 CNS
[43] = tested on: SK-MEL-2 melanoma
[44] = tested on: SK-MEL-28 melanoma
[45] = tested on: SK-MEL-5 melanoma
[46] = tested on: SK-OV-3 ovarian
[47] = tested on: SN12C renal
[48] = tested on: SNB-19 CNS
[49] = tested on: SNB-75 CNS
[50] = tested on: SR leukemia
[51] = tested on: SW-620 colon
[52] = tested on: U251 CNS
[53] = tested on: UACC-257 melanoma
[54] = tested on: UACC-62 melanoma
[55] = tested on: UO-31 renal
[56] = tested on: SF-268 CNS
[57] = tested on: TK-10 renal

Measured: TGI

c1ccc2c(c1)c(N1CCCCC1)cc1nc3c(cc(N4CCCCC4)c4ccccc43)nc12
not listed: [56] | [57]
> 100 µM: all other assays above

COC(=O)[C@@]12CCCC(=O)[C@@H]1[C@H]1CCC[C@H]12
not listed: [2] | [14]
> 100 µM: all other assays above

CCc1nnc(CC)n1-n1c(Cc2ccccc2)n[nH]c1=O
not listed: [2] | [6] | [14] | [23] | [29] | [31]
> 100 µM: all other assays above

Source: PubChem BioAssay (NCI)
